Measured values taken from a compilation of properties of binary mixtures (doi:10.1016/j.molliq.2017.12.015).

Assay: xn = mol fraction of the nth substance listed
Details: 100 kPa

CCOCCO + CCCC[n+]1ccn(C)c1.O=S(=O)([N-]S(=O)(=O)C(F)(F)F)C(F)(F)F
speed of sound [m/s]
Details	x2 = 0	x2 = 0.1036	x2 = 0.1905	x2 = 0.2965	x2 = 0.3882	x2 = 0.489	x2 = 0.5889	x2 = 0.7018	x2 = 0.7928	x2 = 0.9071
298.15 K	1302.8	1279.9	–	–	1240.5	1234.5	1231.4	1230.7	–	1228.3
303.15 K	1285.1	1264.6	1246.6	1234.2	–	1223.9	1219.6	1219	1218.4	1217.3
308.15 K	1267.3	1248.9	1232.1	1220.6	1214.5	1210.4	1207.6	1207.2	1206.9	1206.1
313.15 K	–	1230.1	1217.7	–	–	1198	1197.7	1196.5	1196	1195
318.15 K	1232	1217.4	1203.3	–	–	1187.7	1186.9	1185.9	–	1185
323.15 K	1214.3	1201.5	1189	–	1176.2	1175.5	1175	1174.9	1174.3	1174

CCCC[n+]1ccn(C)c1.O=S(=O)([N-]S(=O)(=O)C(F)(F)F)C(F)(F)F + CCOCCO
x1 = 1
Details	speed of sound [m/s]
298.15 K	1227.8
303.15 K	1216.7
308.15 K	1205.8
313.15 K	1194.9
318.15 K	1184.2
323.15 K	1173.6
